Assay results taken from patent US11977028B2, “Mechanical-bond-induced exciplex fluorescence” (Northwestern University, priority 2020, dated 2024).
Several values for one entry are separate records, joined by “and”; a condition that tells them apart may be missing. Equal values may be shown once.

What was measured:
[1] = test system: MIA PaCa-2 prostate cancer cells; test: Live-cell confocal microscopy imaging; format: cell-based; conditions: 20×10^−6 M, 6 hours treatment, excitation 458 nm
Procedure: (§1) Cells were grown in standard DMEM (supplemented with 10% Fetal Bovine Serum and 1% Penicillin-Streptomycin, supplier=Corning). Cells were seeded into imaging coverglass chamber 40 hours prior to treatment. Compounds were resuspended in deionized H2O then diluted to the final concentration in media. Cells were treated with compounds for 6 hours prior to imaging.
(§2) All imaging was done on a Leica SP5 laser scanning confocal with LAS AF software in the Biological Imaging Facility at Northwestern University (Evanston, IL). A single excitation wavelength (458 nm) was used at a power of 5 uW. For the emission collection, two Leica spectral Hybrid (HyD) detectors were used; one was set to collect a wavelength range of 500-575 nm (with a gain of 200%) and the second was set to collect a wavelength range of 580-635 nm (with a gain of 103%). Images were processed with FIJI/ImageJ (NIH) and settings were kept consistent throughout the series of images.

[2] = test system: MIA PaCa-2 cancer cells; test: Live-cell confocal microscopy imaging; format: cell-based; conditions: concentrations lower than 10×10^−6 M
Procedure: as §1, §2

[3] = Absorption and photoluminescence spectroscopy in solution; format: physicochemical
Text: The close proximity of the anthracene units in the mechanically interlocked cyclophanes was expected to give rise to remarkable optical properties distinct from those of the free cyclophanes. We explored the absorption and fluorescence properties of all compounds at high dilution (4×10^−7 M) to avoid reabsorption processes^40 and aggregation effects.^17 All of the optical parameters are summarized in Tables 1 and 2. Initially, we explored the influence of the pyridine/pyridinium units on the optical properties of both ^2,6AnBox^4+ and ^9,10AnBox^4+ cyclophanes. The presence of two pyridinium units within the linker dramatically affect the optical properties of the anthracene moiety. Although ^2,6AnBPY (FIG. 5C) and ^9,10AnBPY display^41 characteristic vibronic peaks associated with the anthracene moiety at 290 and 400 nm, ^2,6AnDB^2+ and ^9,10AnDB^2+ display a shift of the band at 290 to 330 nm (FIG. 5A) and the emergence of a new featureless broad band at 450 nm associated with CT from the anthracene moiety to the pyridinium unit. It is noteworthy that phenylene-bridged bipyridyl linkers (ExBIPY) display^35 a single absorption peak at 325 nm in MeCN, while the anthracene moiety leads to the emergence of some push-pull D-A character.
All reagents were purchased from commercial suppliers (Aldrich or Fisher) and used without further purification. Anthracene derivatives, 9,10-bis(4-pyridyl)anthracene (^9.^10AnBPY) and 2,6-bis(4-pyridyl)anthracene (^2,6AnBPY) were synthesized following^1,2 reports in the literature. All reactions and manipulations were carried out under a dry N2 atmosphere using standard Schlenk. Thin-layer chromatography (TLC) was performed on silica gel 60 F254 TLC plates (Merck). Column chromatography was carried out using CombiFlash® Automation Systems (Teledyne ISCO) employing both normal phase (RediSep Rf Gold® Normal-Phase Silica) and reverse phase (RediSep Rf Gold® Reversed-phase C18). […] All the spectra were baseline-corrected with a MeCN blank sample. The photoluminescence spectra of all samples were obtained with a Fluorolog-3 spectrafluorometer (Horiba Jobin Yvon) in a 2-mm quartz cuvette with 3-nm slit width and a front-phase geometry. The time-correlated single photon counting setup is described elsewhere.^3 Nuclear magnetic resonance (NMR) spectra were recorded on a Bruker Avance III 500 and 600 MHz spectrometers, with working frequencies of 500 and 600 MHz (′H NMR) and 125 MHz (^13C NMR), respectively. Chemical shifts are reported in ppm relative to the signals corresponding to the residual non-deuterated solvents (CD3CN: δ1−1=1.94 ppm and δC=1.32 ppm). High-resolution mass spectra (HRMS) were measured on an Agilent 6210 Time of Flight (TOF) LC-MS, using an ESI source, coupled with Agilent 1100 HPLC stack, using direct infusion (0.6 mL min ^−1). The binding constants were determined using this link: website http://supramolecular.org.^4

For c1cc2ccc1C[n+]1ccc(cc1)-c1ccc3cc4cc(ccc4cc3c1)-c1cc[n+](cc1)Cc1ccc(cc1)C[n+]1ccc(cc1)-c1ccc3cc4cc(ccc4cc3c1)-c1cc[n+](cc1)C2 [^2,6AnBox^4+], the “emission in the green channel (500-575 nm) in live cells” value [1] was “an emission in the green channel”, the “emission in the red channel (580-635 nm) in live cells” value [1] was “very weak emission in the red channel” and the “emission detected in live cells” value [2] was “No emissions”. For the same compound, the “Φ (PL quantum yield)” value ([3]; 4 × 10^−7 M, MeCN) was 3.6%, the λabs ([3]; 4 × 10^−7 M, MeCN) was 458 nm and the λem ([3]; 4 × 10^−7 M, MeCN) was 548 nm and 562 nm. The “τ (emission lifetime)” value ([3]; 4 × 10^−7 M, MeCN, 405 nm excitation) was 3 ns, the λem ([3]; 4 × 10^−7 M, MeCN, listed as cyclophane) was 562 nm and the “Stokes shifts (δ)” value ([3]; DMF, 4 × 10^−7 M) was 3153 cm⁻¹. For the same compound, the λabs ([3]; DMF, 4 × 10^−7 M) was 472 nm, the λem ([3]; DMF, 4 × 10^−7 M) was 549 nm and the λexc ([3]; DMF, 4 × 10^−7 M) was 468 nm. The “Stokes shifts (δ)” value ([3]; EtOH, 4 × 10^−7 M) was 3574 cm⁻¹, the λabs ([3]; EtOH, 4 × 10^−7 M) was 468 nm and the λem ([3]; EtOH, 4 × 10^−7 M) was 562 nm. The λexc ([3]; EtOH, 4 × 10^−7 M) was 468 nm, the “Stokes shifts (δ)” value ([3]; H2O, 4 × 10^−7 M) was 3284 cm⁻¹ and the λabs ([3]; H2O, 4 × 10^−7 M) was 458 nm. For the same compound, the λem ([3]; H2O, 4 × 10^−7 M) was 553 nm, the λexc ([3]; H2O, 4 × 10^−7 M) was 468 nm and the “Stokes shifts (δ)” value ([3]; Me2SO, 4 × 10^−7 M) was 3915 cm⁻¹. The λabs ([3]; Me2SO, 4 × 10^−7 M) was 460 nm, the λem ([3]; Me2SO, 4 × 10^−7 M) was 570 nm and the λexc ([3]; Me2SO, 4 × 10^−7 M) was 466 nm. For the same compound, the “charge transfer (CT) absorption band” value ([3]; MeCN) was 458 nm, the “Stokes shifts (δ)” value ([3]; MeCN, 4 × 10^−7 M (Table 2)) was 3946 cm⁻¹ and the λabs ([3]; MeCN, 4 × 10^−7 M (Table 2)) was 458 nm. The λem ([3]; MeCN, 4 × 10^−7 M (Table 2)) was 562 nm, the λexc ([3]; MeCN, 4 × 10^−7 M (Table 2)) was 460 nm and the “charge transfer (CT) absorption band” value ([3]; MeCN, listed as cyclophane) was 455 nm. The “Stokes shifts (δ)” value ([3]; MeOH, 4 × 10^−7 M) was 3854 cm⁻¹, the λabs ([3]; MeOH, 4 × 10^−7 M) was 460 nm and the λem ([3]; MeOH, 4 × 10^−7 M) was 568 nm. The λexc ([3]; MeOH, 4 × 10^−7 M) was 466 nm and the “concentration dependence of excimer/exciplex emission” value ([3]; from high concentration to high dilution (10^−8 M)) was “absence of excimer emission at high concentration”.
